Tests used:
[1] = Body weight change / toxicity in L1210-bearing mice; assay type: in vivo, mice (CD2F1); details: L1210-bearing mice
Method: (§1) Leukemia L1210 cells were obtained from the Frederick Cancer Research Facility, Division of Cancer Treatment Tumor Repository of the National Cancer Institute, and were maintained by serial passage in tissue culture. Every 8 weeks, tumor cells were injected intraperitoneally into five donor CD2 F1 mice 8- to 10- weeks of age and were allowed to grow for 7 days. The peritoneal fluid was withdrawn and the suspension was centrifuged for 5 min at 1600 g. The supernatant was decanted and 10^5 cells/mL were seeded into 10 mL of RPMI 1640 medium supplemented with 10% fetal bovine serum and 1% L-glutamine, and once again maintained in culture. To assay for antineoplastic activity, 0.1 mL of the cell suspension containing 10^5 L1210 leukemia cells was injected ip into each recipient mouse. Test compounds were administered over a wide range of dosage levels, beginning 24 h after tumor implantation, and continued once daily for 6 consecutive days. All drugs were administered ip as a solution in 100% dimethylsulfoxide (DMSO), in a volume not exceeding 0.025 mL. […] Mice were weighed during the course of the experiments, and the percentage change in body weight from onset to termination of therapy was used as an indication of drug toxicity. Determination of the sensitivity of neoplasms to these agents was based upon the prolongation of survival time afforded by the drug treatments.
(§2) ^a Administered ip once daily for six consecutive days, beginning 24 hours after tumor implantation, with 5-10 mice being used per group. ^b Average percent change in body weight from onset to termination of therapy. ^c % T/C=average survival time of treated/control mice×100; cures (>60-day survivors) are listed separately and are not included in this calculation.

[2] = test system: L1210 leukemia; assay: L1210 leukemia survival time in mice (ip implanted); assay type: in vivo, mice (CD2F1); details: for %T/C (average survival time treated/control × 100): cures not included
Method: as §1, §2

[3] = test system: M109 lung carcinoma; assay: M109 lung carcinoma, sc implanted; assay type: in vivo, BALB/c mice
Method: (§3) The M5076 reticulum cell sarcoma was passaged biweekly by sc transfer of tumor fragments into C57BL/6 mice, and the M109 lung carcinoma was similarly passaged in BALB/c mice. The LX-1 human lung carcinoma was passaged sc every two to three weeks in BALB/c-background athymic (nu/nu) mice. For use in these systems, compound III was dissolved in: (a) 100% DMSO and administered by iv injection in a fixed volume of 10 microliters; or (b) DMSO diluted with saline to a final concentration of 10% DMSO and administered iv in a volume of 0.01 milliliter/g of body weight. […] Mitomycin C and cyclophosphamide were dissolved and administered in saline. BCNU and MeCCNU were dissolved in ethanol and diluted 1:9 (v/v) with water prior to administration.
(§4) Five mice per group were employed in experiments with the B16F10 melanoma, and 8 mice per group with the M5076 sarcoma, the M109 carcinoma and the LX-1 carcinoma. A minimum of two dose levels per compound were included in each evaluation and drug therapy was initiated 24 h after tumor implantation for the M5076 sarcoma and M109 carcinoma. In the LX-1 experiment, tumor bearing mice were selected and sorted into treatment and control groups on day 6 post-tumor implant such that all tumor weights ranged from 50-100 mg and median tumor weights per group were reasonably similar. Therapeutic results are presented in terms of: (a) increases in lifespan reflected by the relative median survival time (MST) of treated versus control groups (i.e., %T/C values), and by long-term survivors, and (b) primary tumor growth inhibition (i.e., T-C values) determined by calculating the relative median times for treated (T) and control untreated (C) mice to grow tumors of a 0.5 g size for the LX-1 carcinoma or a 1 g size for the murine neoplasms. Tumor weights were interchangeable with tumor size on the basis of 1 mm^3 =1 mg. […] The activity criterion for tumor inhibition was a delay in tumor growth consistent with one log10 cell kill (LCK). The absolute T-C value needed to attain this level of efficacy varied from experiment to experiment and depended upon the tumor volume doubling time of the control mice in each study. Treated mice dying prior to day 10 in the ip M109 experiment, or dying before their tumors achieved 0.5 g for the LX-1 carcinoma or 1 g in size for all other sc tumor models, were considered to have died from drug toxicity. Groups of mice with more than one death due to drug toxicity were not used in the evaluation of antitumor efficacy. Statistical evaluations of data were performed using Gehan's generalized Wilcoxan test (Gehan, Biometrika, 1965, 52, 203-233).
Compound III was also evaluated against the M109 lung carcinoma implanted subcutaneously (sc). In the initial test using this model, a dose of 50 mg/kg per injection of this compound was administered intravenously (iv) in 10% DMSO in saline every fourth day for a total of three injections. […] Mitomycin C, used as a reference drug, produced a maximum %T/C of 103 and a delay in tumor growth of 10 days (data not shown). A subsequent evaluation of compound III was performed using four different doses on a slightly different schedule, i.e., 24, 32, 48 and 64 mg/kg administered every third day for four total injections, and two vehicles, 10% DMSO in saline and 100% DMSO. […] Cyclophosphamide and mitomycin C were included as reference drugs in the last experiment. The former compound produced a maximum %T/C of 143 and a delay in tumor growth of 8.8 days, while mitomycin C produced a maximum %T/C of 134 and a T-C value of 9.3 days (data not shown). As reported earlier, compound X achieved a maximum %T/C of 136 and a maximum T-C value of 14.5 days against this tumor (Shyam, et al., J. Med. Chem., 1993, 36, 3496).

[4] = test system: M5076 reticulum cell sarcoma; assay: M5076 reticulum cell sarcoma, sc implanted; assay type: in vivo, C57BL/6 mice; details: 16 mg/kg per injection, iv every fourth day × 3
Method: as §3, §4
Compound III was also evaluated against the M5076 reticulum cell sarcoma implanted sc. When administered iv at a level of 48 mg/kg per injection in 100% DMSO every other day for five days, compound III cured 6 out of 8 mice and consequently, no median time (T-C value) to reach 1 gram size tumors was expressed for this group. Tumor growth in mice receiving only 100% DMSO was indistinguishable from that of untreated control animals. 1-(2-Chloroethyl)-3-(4-methylcyclohexyl)-1-nitrosourea (MeCCNU) and BCNU were included in this experiment for comparison. The former achieved a maximum %T/C of 128 and a delay in tumor growth of 33.5 days at 16 mg/kg per injection administered iv every fourth day for three total injections, while BCNU, administered iv on the same treatment schedule, produced a %T/C in excess of 157, with 2 out of 8 cures, and a T-C of >62 days (data not shown).

[5] = reference drugs in last experiment (experiment b)
[6] = reference drug in initial test (experiment a)

## CCOC(=O)C(Cc1ccccc1)NC(=O)N(N(CCCl)S(C)(=O)=O)S(C)(=O)=O (stereo not shown) [Compound IX, 1,2-Bis(methylsulfonyl)-1-(2-chloroethyl)-2-(1-ethoxycarbonyl-2-phenylethyl)aminocarbonylhydrazine]
[1]; 5 mg/kg ip once daily × 6
  Av. Wt. Change %: -2.5%
[1]; 10 mg/kg ip once daily × 6
  Av. Wt. Change %: -0.5%
[1]; 15 mg/kg ip once daily × 6
  Av. Wt. Change %: -1.9%
[1]; 20 mg/kg ip once daily × 6
  Av. Wt. Change %: -1.9%
[1]; 25 mg/kg ip once daily × 6
  Av. Wt. Change %: -0.9%
[1]; 50 mg/kg ip once daily × 6
  Av. Wt. Change %: -2.0%
[1]; 100 mg/kg ip once daily × 6
  Av. Wt. Change %: -2.0%
[1]; 150 mg/kg ip once daily × 6
  Av. Wt. Change %: -5.0%
[2]; 5 mg/kg ip once daily × 6
  %T/C (average survival time treated/control × 100): 147%
[2]; 10 mg/kg ip once daily × 6
  %T/C (average survival time treated/control × 100): 165%
[2]; 15 mg/kg ip once daily × 6
  %T/C (average survival time treated/control × 100): 160%
[2]; 20 mg/kg ip once daily × 6
  %T/C (average survival time treated/control × 100): 174%
[2]; 25 mg/kg ip once daily × 6
  %T/C (average survival time treated/control × 100): 177%
[2]; 50 mg/kg ip once daily × 6
  % 60 Day Survivors (cures): 60%
  %T/C (average survival time treated/control × 100): 225%
[2]; 100 mg/kg ip once daily × 6
  % 60 Day Survivors (cures): 100%
[2]; 150 mg/kg ip once daily × 6
  % 60 Day Survivors (cures): 20%
  %T/C (average survival time treated/control × 100): 169%

## C=CCNC(=O)N(N(CCCl)S(C)(=O)=O)S(C)(=O)=O [Compound V, 2-Allylaminocarbonyl-1,2-bis(methylsulfonyl)-1-(2-chloroethyl)hydrazine]
[1]; 5 mg/kg ip once daily × 6
  Av. Wt. Change %: -1.6%
[1]; 10 mg/kg ip once daily × 6
  Av. Wt. Change %: -2.1%
[1]; 15 mg/kg ip once daily × 6
  Av. Wt. Change %: -2.9%
[2]; 5 mg/kg ip once daily × 6
  % 60 Day Survivors (cures): 20%
  %T/C (average survival time treated/control × 100): 184%
[2]; 10 mg/kg ip once daily × 6
  % 60 Day Survivors (cures): 40%
  %T/C (average survival time treated/control × 100): 394%
[2]; 15 mg/kg ip once daily × 6
  % 60 Day Survivors (cures): 100%
[2]; qualitative, L1210 leukemia in mice
  antileukemic activity / therapeutic potential (in words): highly efficacious against this tumor

## CS(=O)(=O)N(CCCl)N(C(=O)NCCCCl)S(C)(=O)=O [Compound VI, 1,2-Bis(methylsulfonyl)-1-(2-chloroethyl)-2-(3-chloropropyl)aminocarbonylhydrazine]
[1]; 5 mg/kg ip once daily × 6
  Av. Wt. Change %: -2.8%
[1]; 10 mg/kg ip once daily × 6
  Av. Wt. Change %: -5.6%
[1]; 15 mg/kg ip once daily × 6
  Av. Wt. Change %: -8.8%
[2]; 5 mg/kg ip once daily × 6
  %T/C (average survival time treated/control × 100): 111%
[2]; 10 mg/kg ip once daily × 6
  %T/C (average survival time treated/control × 100): 187%
[2]; 15 mg/kg ip once daily × 6
  % 60 Day Survivors (cures): 20%
  %T/C (average survival time treated/control × 100): 192%
[2]; highest dosage level examined (15 mg/kg × 6)
  cure rate (in words): partial cure rate of tumor-bearing mice

## CCOC(=O)CNC(=O)N(N(CCCl)S(C)(=O)=O)S(C)(=O)=O [Compound VII, 1,2-Bis(methylsulfonyl)-1-(2-chloroethyl)-2-(ethoxycarbonylmethyl)aminocarbonylhydrazine]
[1]; 5 mg/kg ip once daily × 6
  Av. Wt. Change %: -1.5%
[1]; 10 mg/kg ip once daily × 6
  Av. Wt. Change %: -1.4%
[1]; 15 mg/kg ip once daily × 6
  Av. Wt. Change %: -0.5%
[1]; 20 mg/kg ip once daily × 6
  Av. Wt. Change %: -3.7%
[1]; 25 mg/kg ip once daily × 6
  Av. Wt. Change %: -0.5%
[1]; 50 mg/kg ip once daily × 6
  Av. Wt. Change %: -2.5%
[1]; 75 mg/kg ip once daily × 6
  Av. Wt. Change %: -1.5%
[1]; 100 mg/kg ip once daily × 6
  Av. Wt. Change %: -4.0%
[2]; 5 mg/kg ip once daily × 6
  %T/C (average survival time treated/control × 100): 151%
[2]; 10 mg/kg ip once daily × 6
  % 60 Day Survivors (cures): 20%
  %T/C (average survival time treated/control × 100): 202%
[2]; 15 mg/kg ip once daily × 6
  %T/C (average survival time treated/control × 100): 202%
[2]; 20 mg/kg ip once daily × 6
  % 60 Day Survivors (cures): 20%
  %T/C (average survival time treated/control × 100): 191%
[2]; 25 mg/kg ip once daily × 6
  % 60 Day Survivors (cures): 100%
[2]; 50 mg/kg ip once daily × 6
  % 60 Day Survivors (cures): 80%
  %T/C (average survival time treated/control × 100): 138%
[2]; 75 mg/kg ip once daily × 6
  % 60 Day Survivors (cures): 60%
  %T/C (average survival time treated/control × 100): 119%
[2]; 100 mg/kg ip once daily × 6
  %T/C (average survival time treated/control × 100): 115%

## CCOC(=O)C(C)NC(=O)N(N(CCCl)S(C)(=O)=O)S(C)(=O)=O (stereo not shown) [Compound VIII, 1,2-Bis(methylsulfonyl)-1-(2-chloroethyl)-2-(1-ethoxycarbonylethyl)aminocarbonylhydrazine]
[1]; 5 mg/kg ip once daily × 6
  Av. Wt. Change %: -2.0%
[1]; 10 mg/kg ip once daily × 6
  Av. Wt. Change %: -1.4%
[1]; 15 mg/kg ip once daily × 6
  Av. Wt. Change %: -0.5%
[1]; 20 mg/kg ip once daily × 6
  Av. Wt. Change %: -1.5%
[1]; 25 mg/kg ip once daily × 6
  Av. Wt. Change %: -2.5%
[1]; 50 mg/kg ip once daily × 6
  Av. Wt. Change %: -3.3%
[1]; 75 mg/kg ip once daily × 6
  Av. Wt. Change %: -2.5%
[1]; 100 mg/kg ip once daily × 6
  Av. Wt. Change %: -2.5%
[2]; 5 mg/kg ip once daily × 6
  %T/C (average survival time treated/control × 100): 170%
[2]; 10 mg/kg ip once daily × 6
  % 60 Day Survivors (cures): 20%
  %T/C (average survival time treated/control × 100): 178%
[2]; 15 mg/kg ip once daily × 6
  %T/C (average survival time treated/control × 100): 185%
[2]; 20 mg/kg ip once daily × 6
  %T/C (average survival time treated/control × 100): 227%
[2]; 25 mg/kg ip once daily × 6
  % 60 Day Survivors (cures): 60%
  %T/C (average survival time treated/control × 100): 239%
[2]; 50 mg/kg ip once daily × 6
  % 60 Day Survivors (cures): 100%
[2]; 75 mg/kg ip once daily × 6
  % 60 Day Survivors (cures): 80%
  %T/C (average survival time treated/control × 100): 125%
[2]; 100 mg/kg ip once daily × 6
  %T/C (average survival time treated/control × 100): 118%

## O=P1(N(CCCl)CCCl)NCCCO1 (stereo not shown) [Cyclophosphamide, cyclophosphamide, reference compound]
[3]; [5]
  delay in tumor growth (T-C): 8.8 days
  maximum %T/C: 143%

## CC1CCC(NC(=O)N(CCCl)N=O)CC1 (stereo not shown) [MeCCNU, 1-(2-Chloroethyl)-3-(4-methylcyclohexyl)-1-nitrosourea]
[4]
  delay in tumor growth (T-C): 33.5 days
  maximum %T/C: 128%

## CO[C@@]12[C@H](COC(N)=O)C3=C(C(=O)C(C)=C(N)C3=O)N1C[C@@H]1N[C@@H]12 [Mitomycin C, mitomycin C, reference compound]
[3]; [6]
  delay in tumor growth (T-C): 10 days
  maximum %T/C: 103%
[3]; [5]
  delay in tumor growth (T-C): 9.3 days
  maximum %T/C: 134%
